Data taken from patent US20250122183A1 (Pfizer Inc., priority 2023, published 2025).
Where two headings read alike, the source gives them in different places.

Key:
Type in all cases: biochemical
Conditions in all cases: replicate number in parentheses
[1] = molecular target: KAT6A Full length enzyme (Homo sapiens (Human), UniProt Q92794); test: KAT6A assay (SAMDI-MS acetylation of H3 1-21 peptide)
[2] = molecular target: KAT7+JADE1+EAF6+ING5 4 protein complex (Homo sapiens (Human), UniProt O95251); test: KAT7 JADE1 assay (SAMDI-MS acetylation of H3 1-21 peptide)
[3] = molecular target: KAT5 Full length enzyme (Homo sapiens (Human), UniProt Q92993); test: KAT5 assay (SAMDI-MS acetylation of H4 1-21 peptide)
Chain of KAT5 Full length enzyme (Q92993 whole entry): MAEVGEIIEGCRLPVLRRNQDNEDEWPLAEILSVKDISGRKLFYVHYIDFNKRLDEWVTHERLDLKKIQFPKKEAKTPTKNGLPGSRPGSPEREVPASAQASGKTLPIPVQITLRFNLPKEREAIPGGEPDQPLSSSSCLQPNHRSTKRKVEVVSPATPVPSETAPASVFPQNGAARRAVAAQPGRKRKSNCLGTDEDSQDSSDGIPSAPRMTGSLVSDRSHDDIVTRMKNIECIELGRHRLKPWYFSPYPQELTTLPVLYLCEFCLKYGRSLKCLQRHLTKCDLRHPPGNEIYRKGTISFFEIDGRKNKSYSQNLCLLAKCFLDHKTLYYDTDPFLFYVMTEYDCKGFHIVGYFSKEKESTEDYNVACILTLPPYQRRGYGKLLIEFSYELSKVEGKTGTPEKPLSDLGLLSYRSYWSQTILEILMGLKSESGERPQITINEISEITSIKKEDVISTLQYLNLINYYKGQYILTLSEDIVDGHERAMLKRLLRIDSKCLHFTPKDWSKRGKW

[4] = molecular target: KAT8 Full length enzyme (Homo sapiens (Human), UniProt Q9H7Z6); test: KAT8 assay (SAMDI-MS acetylation of H3 1-21 peptide)
Chain of KAT8 Full length enzyme (Q9H7Z6 whole entry): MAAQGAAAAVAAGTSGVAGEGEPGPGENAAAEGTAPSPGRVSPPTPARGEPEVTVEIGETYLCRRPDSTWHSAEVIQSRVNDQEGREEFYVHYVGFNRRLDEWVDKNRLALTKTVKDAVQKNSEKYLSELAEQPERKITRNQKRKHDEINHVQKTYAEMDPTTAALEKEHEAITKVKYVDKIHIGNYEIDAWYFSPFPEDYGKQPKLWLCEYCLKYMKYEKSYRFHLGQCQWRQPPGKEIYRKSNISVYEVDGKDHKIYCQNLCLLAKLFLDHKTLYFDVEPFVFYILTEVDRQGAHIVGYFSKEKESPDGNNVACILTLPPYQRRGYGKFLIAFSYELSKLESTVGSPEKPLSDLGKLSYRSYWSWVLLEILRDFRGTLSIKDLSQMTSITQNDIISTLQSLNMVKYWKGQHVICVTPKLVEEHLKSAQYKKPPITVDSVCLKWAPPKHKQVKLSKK

[5] = Morrison equation fit, read-out: KAT6A Ki (nM) (replicate number)
[6] = Morrison equation fit, read-out: KAT7 JADE1 Ki (nM) (replicate number)
[7] = Morrison equation fit, read-out: KAT5 Ki (nM) (replicate number)
[8] = Morrison equation fit, read-out: KAT8 Ki (nM) (replicate number)

Chain of KAT6A Full length enzyme (Q92794 other isoform, or with tags, fused parts or gaps): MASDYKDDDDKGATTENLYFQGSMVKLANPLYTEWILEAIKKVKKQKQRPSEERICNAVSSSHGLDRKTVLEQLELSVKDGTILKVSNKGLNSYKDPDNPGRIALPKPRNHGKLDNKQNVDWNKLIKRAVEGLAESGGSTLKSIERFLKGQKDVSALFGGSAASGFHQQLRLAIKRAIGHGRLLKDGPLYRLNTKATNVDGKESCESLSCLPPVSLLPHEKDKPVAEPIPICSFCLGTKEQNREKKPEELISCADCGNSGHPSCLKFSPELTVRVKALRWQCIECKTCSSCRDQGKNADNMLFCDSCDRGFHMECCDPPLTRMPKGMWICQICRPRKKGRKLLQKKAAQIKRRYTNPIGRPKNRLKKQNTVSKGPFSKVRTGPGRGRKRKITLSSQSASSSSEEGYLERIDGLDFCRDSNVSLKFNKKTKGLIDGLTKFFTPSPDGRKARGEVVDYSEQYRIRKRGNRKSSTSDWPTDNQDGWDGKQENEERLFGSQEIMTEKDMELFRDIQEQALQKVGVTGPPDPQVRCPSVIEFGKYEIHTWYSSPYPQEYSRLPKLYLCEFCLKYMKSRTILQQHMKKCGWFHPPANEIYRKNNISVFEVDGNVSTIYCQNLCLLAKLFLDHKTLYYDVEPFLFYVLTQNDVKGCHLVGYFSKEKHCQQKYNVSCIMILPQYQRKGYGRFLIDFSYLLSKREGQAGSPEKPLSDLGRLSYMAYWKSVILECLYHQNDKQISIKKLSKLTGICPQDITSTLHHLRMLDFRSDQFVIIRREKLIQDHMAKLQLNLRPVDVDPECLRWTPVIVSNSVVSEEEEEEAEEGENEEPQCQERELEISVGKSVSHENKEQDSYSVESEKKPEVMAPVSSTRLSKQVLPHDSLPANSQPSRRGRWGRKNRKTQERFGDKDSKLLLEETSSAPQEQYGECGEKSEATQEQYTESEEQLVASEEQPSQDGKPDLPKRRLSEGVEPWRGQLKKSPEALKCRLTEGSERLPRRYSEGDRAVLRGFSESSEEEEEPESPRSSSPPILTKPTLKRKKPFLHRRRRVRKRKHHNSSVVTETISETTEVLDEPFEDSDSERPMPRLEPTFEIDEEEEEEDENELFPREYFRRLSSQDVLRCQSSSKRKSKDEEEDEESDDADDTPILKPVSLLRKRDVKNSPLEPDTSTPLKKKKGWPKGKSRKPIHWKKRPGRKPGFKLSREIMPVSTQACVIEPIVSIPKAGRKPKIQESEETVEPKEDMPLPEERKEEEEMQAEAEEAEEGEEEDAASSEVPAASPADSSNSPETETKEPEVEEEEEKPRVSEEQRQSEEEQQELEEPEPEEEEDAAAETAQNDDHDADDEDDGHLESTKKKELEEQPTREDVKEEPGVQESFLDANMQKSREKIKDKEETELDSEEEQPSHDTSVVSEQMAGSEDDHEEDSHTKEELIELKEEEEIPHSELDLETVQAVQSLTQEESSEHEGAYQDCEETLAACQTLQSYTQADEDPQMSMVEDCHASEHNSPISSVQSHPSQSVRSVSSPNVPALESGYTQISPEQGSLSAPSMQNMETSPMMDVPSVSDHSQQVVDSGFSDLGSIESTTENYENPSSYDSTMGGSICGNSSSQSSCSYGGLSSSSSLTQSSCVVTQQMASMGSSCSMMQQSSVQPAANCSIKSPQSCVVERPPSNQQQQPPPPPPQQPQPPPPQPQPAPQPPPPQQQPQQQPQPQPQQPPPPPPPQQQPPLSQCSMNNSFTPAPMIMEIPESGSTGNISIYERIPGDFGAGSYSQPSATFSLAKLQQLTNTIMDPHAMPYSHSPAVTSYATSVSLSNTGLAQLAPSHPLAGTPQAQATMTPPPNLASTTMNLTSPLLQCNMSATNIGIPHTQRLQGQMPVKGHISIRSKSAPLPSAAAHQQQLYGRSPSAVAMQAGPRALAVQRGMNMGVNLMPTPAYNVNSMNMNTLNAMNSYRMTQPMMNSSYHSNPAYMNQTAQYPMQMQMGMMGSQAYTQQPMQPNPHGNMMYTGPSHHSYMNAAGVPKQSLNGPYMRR

SMILES | Ki [1, 5] [nM] | Ki [2, 6] [nM] | Ki [3, 7] [nM] | Ki [4, 8] [nM] | Ki ([1]; read-out: KAT6A Ki (nM) (replicate)) | Ki ([2]; read-out: KAT7 JADE1 Ki (nM) (replicate)) | Ki ([3]; read-out: KAT5 Ki (nM) (replicate)) | Ki ([4]; read-out: KAT8 Ki (nM) (replicate))
COc1cc2c(NS(=O)(=O)c3c(OC)cccc3OC)noc2cc1Nc1nccc(C)n1 [Example 105, 2,6-dimethoxy-N-{5-methoxy-6-[(4-methylpyrimidin-2-yl)amino]-1,2-benzoxazol-3-yl}benzene-1-sulfonamide] | 9.7 | 414 | 4120 | > 12700 | – | – | – | –
COc1cc2c(NS(=O)(=O)c3c(OC)cc(-c4cccnc4)cc3OC)noc2cc1Nc1cc(C2CC2)n[nH]1 [Example 07, N-{6-[(3-cyclopropyl-1H-pyrazol-5-yl)amino]-5-methoxy-1,2-benzoxazol-3-yl}-2,6-dimethoxy-4-(pyridin-3-yl)benzene-1-sulfonamide] | 0.6 | 4.2 | 53.6 | 457 | – | – | – | –
COc1cc2c(NS(=O)(=O)c3c(OC)cccc3OC)noc2cc1Nc1cc(C2(C)CC2)n[nH]1 [Example 94, 2,6-dimethoxy-N-(5-methoxy-6-{[3-(1-methylcyclopropyl)-1H-pyrazol-5-yl]amino}-1,2-benzoxazol-3-yl)benzene-1-sulfonamide] | 6.3 | 58.1 | 193 | 5740 | – | – | – | –
COc1cc2c(NS(=O)(=O)c3c(OC)cccc3OC)noc2cc1Nc1ccccn1 [Example 111, 2,6-dimethoxy-N-{5-methoxy-6-[(pyridin-2-yl)amino]-1,2-benzoxazol-3-yl}benzene-1-sulfonamide] | 0.8 | 400 | 1130 | > 13000 | – | – | – | –
CCc1cc(Nc2cc3onc(NS(=O)(=O)c4ccc(-c5ccccc5)cc4)c3cc2OC)n[nH]1 [Example 130, N-{6-[(5-ethyl-1 H-pyrazol-3-yl)amino]-5-methoxy-1,2-benzoxazol-3-yl}[1,1′-biphenyl]-4-sulfonamide] | 13 | 85.2 | 2010 | 7520 | – | – | – | –
COc1cc2c(NS(=O)(=O)c3c(OC)cccc3OC)noc2cc1Nc1cc([C@H](C)O)n[nH]1 (single isomer, unassigned) [Example 86, N-(6-{[3-(1-hydroxyethyl)-1H-pyrazol-5-yl]amino}-5-methoxy-1,2-benzoxazol-3-yl)-2,6-dimethoxybenzene-1-sulfonamide] | 8.9 | 552 | 1280 | > 13000 | – | – | – | –
COc1cccc(OC)c1S(=O)(=O)Nc1noc2cc(Nc3ncccn3)cc(OC)c12 [Example 20, 2,6-dimethoxy-N-{4-methoxy-6-[(pyrimidin-2-yl)amino]-1,2-benzoxazol-3-yl}benzene-1-sulfonamide] | 5.3 | 1540 | 9380 | 14600 | – | – | – | –
COc1cc2c(NS(=O)(=O)c3c(OC)cc(C4CCN(C)C4)cc3OC)noc2cc1Nc1cc(C2CC2)n[nH]1 (single isomer, unassigned) [Example 148, N-{6-[(3-cyclopropyl-1 H-pyrazol-5-yl)amino]-5-methoxy-1,2-benzoxazol-3-yl}-2,6-dimethoxy-4-(1-methylpyrrolidin-3-yl)benzene-1-sulfonamide] | 1.1 | 3.6 | 78.1 | 575 | – | – | – | –
CCn1nc(Nc2cc3onc(NS(=O)(=O)c4c(OC)cccc4OC)c3cc2OC)cc1C [Example 74, N-{6-[(1-ethyl-5-methyl-1H-pyrazol-3-yl)amino]-5-methoxy-1,2-benzoxazol-3-yl}-2,6-dimethoxybenzene-1-sulfonamide] | 5.2 | 483 | 2160 | > 13000 | – | – | – | –
COc1cc2c(NS(=O)(=O)c3c(OC)cc(-c4ccccn4)cc3OC)noc2cc1Nc1cc(C2CC2)n[nH]1 [Example 118, N-{6-[(3-cyclopropyl-1H-pyrazol-5-yl)amino]-5-methoxy-1,2-benzoxazol-3-yl}-2,6-dimethoxy-4-(pyridin-2-yl)benzene-1-sulfonamide] | 0.9 | 8.1 | 66.1 | 731 | – | – | – | –
COc1cc2c(NS(=O)(=O)c3c(OC)cc([C@H]4CCCO4)cc3OC)noc2cc1Nc1cc(C2CC2)n[nH]1 [Example 141, N-{6-[(3-cyclopropyl-1 H-pyrazol-5-yl)amino]-5-methoxy-1,2-benzoxazol-3-yl}-2,6-dimethoxy-4-[(2R)-oxolan-2-yl]benzene-1-sulfonamide] | 1 | 6.9 | 134 | 762 | – | – | – | –
COc1cc2c(NS(=O)(=O)c3c(OC)cccc3OC)noc2cc1Nc1cc([C@H]2CC2(F)F)[nH]n1 (single isomer, unassigned) [Example 68, N-(6-{[5-(2,2-difluorocyclopropyl)-1H-pyrazol-3-yl]amino}-5-methoxy-1,2-benzoxazol-3-yl)-2,6-dimethoxybenzene-1-sulfonamide] | 1.2 | 16.8 | 39.3 | 4130 | – | – | – | –
COc1cc2c(NS(=O)(=O)c3c(OC)cccc3OC)noc2cc1Nc1cc(OC)n(C)n1 [Example 104, 2,6-dimethoxy-N-{5-methoxy-6-[(5-methoxy-1-methyl-1H-pyrazol-3-yl)amino]-1,2-benzoxazol-3-yl}benzene-1-sulfonamide] | 5.6 | 139 | 1040 | > 10900 | – | – | – | –
COc1cc2c(NS(=O)(=O)c3c(OC)cc(-c4cnn(C)c4)cc3OC)noc2cc1Nc1cc(C2CC2)n[nH]1 [Example 123, N-{6-[(3-cyclopropyl-1H-pyrazol-5-yl)amino]-5-methoxy-1,2-benzoxazol-3-yl}-2,6-dimethoxy-4-(1-methyl-1H-pyrazol-4-yl)benzene-1-sulfonamide] | 0.8 | 10.4 | 246 | 189 | – | – | – | –
COc1cc2c(NS(=O)(=O)c3c(OC)cccc3OC)noc2cc1Nc1ncccn1 [Example 102, 2,6-dimethoxy-N-{5-methoxy-6-[(pyrimidin-2-yl)amino]-1,2-benzoxazol-3-yl}benzene-1-sulfonamide] | 1.9 | 1440 | 5970 | > 19500 | – | – | – | –
COc1cc2c(NS(=O)(=O)c3c(OC)cc(CN4CC(F)C4)cc3OC)noc2cc1Nc1cc(C2CC2)n[nH]1 [Example 202, N-{6-[(3-cyclopropyl-1H-pyrazol-5-yl)amino]-5-methoxy-1,2-benzoxazol-3-yl}-4-[(3-fluoroazetidin-1-yl)methyl]-2,6-dimethoxybenzene-1-sulfonamide] | 0.7 | 5.2 | 25.4 | 844 | – | – | – | –
CCCc1ccc(S(=O)(=O)Nc2noc3cc(Nc4cc(CC)[nH]n4)c(OC)cc23)cc1 [Example 127, N-{6-[(5-ethyl-1 H-pyrazol-3-yl)amino]-5-methoxy-1,2-benzoxazol-3-yl}-4-propylbenzene-1-sulfonamide] | 32.8 | 175 | 3940 | > 13000 | – | – | – | –
COc1cc2c(NS(=O)(=O)c3c(OC)cccc3OC)noc2cc1Nc1nc(C)cc(C)n1 [Example 108, N-{6-[(4,6-dimethylpyrimidin-2-yl)amino]-5-methoxy-1,2-benzoxazol-3-yl}-2,6-dimethoxybenzene-1-sulfonamide] | 202 | 3420 | 45000 | > 13000 | – | – | – | –
CCc1ccnc(Nc2cc3onc(NS(=O)(=O)c4c(OC)cccc4OC)c3cc2OC)n1 [Example 106, N-{6-[(4-ethylpyrimidin-2-yl)amino]-5-methoxy-1,2-benzoxazol-3-yl}-2,6-dimethoxybenzene-1-sulfonamide] | 11.7 | 410 | 1990 | 6430 | – | – | – | –
COc1cc2c(NS(=O)(=O)c3c(OC)cc(-n4ncccc4=O)cc3OC)noc2cc1Nc1cc(C2CC2)n[nH]1 [Example 243, N-{6-[(3-cyclopropyl-1 H-pyrazol-5-yl)amino]-5-methoxy-1,2-benzoxazol-3-yl}-2,6-dimethoxy-4-(6-oxopyridazin-1(6H)-yl)benzene-1-sulfonamide] | 1.5 | 16.9 | 168 | 872 | – | – | – | –
COc1cc2c(NS(=O)(=O)c3c(OC)cc(C(=O)N4CC[C@H](F)C4)cc3OC)noc2cc1Nc1cc(C2CC2)n[nH]1 [Example 259, N-{6-[(3-cyclopropyl-1H-pyrazol-5-yl)amino]-5-methoxy-1,2-benzoxazol-3-yl}-4-[(3S)-3-fluoropyrrolidine-1-carbonyl]-2,6-dimethoxybenzene-1-sulfonamide] | – | – | – | – | 1.2 | 6.7 | 85.1 | 4990
COc1cc2c(NS(=O)(=O)c3c(OC)cccc3OC)noc2cc1Nc1cc(Cl)n[nH]1 [Example 92, N-{6-[(3-chloro-1H-pyrazol-5-yl)amino]-5-methoxy-1,2-benzoxazol-3-yl}-2,6-dimethoxybenzene-1-sulfonamide] | 1.3 | 219 | 867 | 2100 | – | – | – | –
COc1cc2c(NS(=O)(=O)c3c(OC)cccc3OC)noc2cc1Nc1cc(C(C)(C)C)n[nH]1 [Example 116, N-{6-[(3-tert-butyl-1H-pyrazol-5-yl)amino]-5-methoxy-1,2-benzoxazol-3-yl}-2,6-dimethoxybenzene-1-sulfonamide] | 11.8 | 98 | 546 | 7900 | – | – | – | –
COc1cccc(OC2CCC2)c1S(=O)(=O)Nc1noc2cc(Nc3cc(C4CC4)n[nH]3)c(F)c(OC)c12 [Example 98, 2-(cyclobutyloxy)-N-{6-[(3-cyclopropyl-1H-pyrazol-5-yl)amino]-5-fluoro-4-methoxy-1,2-benzoxazol-3-yl}-6-methoxybenzene-1-sulfonamide] | 5.7 | 74.6 | 3790 | > 13000 | – | – | – | –
